# Source: ChEMBL document CHEMBL1201862, “PubChem BioAssay data set” (2004)
# The source made the active and inactive calls.
# How the values were obtained:
# Nonstructural protein 1 = Nonstructural protein 1 (Influenza A virus, UniProt Q194T2); type: functional, Influenza A virus (A/California/07/2009(H1N1))
# Prothrombin = Prothrombin (Homo sapiens, UniProt P00734); assay: Thrombin 1536 HTS Dose Response Confirmation. [Related pubchem assays: 1046 (Thrombin 1536 HTS; hits were confirmed in this assay)]; type: functional
# [1] = biological target: T1, Voltage-gated N-type calcium channel alpha-1B subunit/Amyloid beta A4 precursor protein-binding family A member 1 (Homo sapiens, UniProt Q00975+Q02410); type: protein assay
# [2] = biological target: T1, Voltage-gated N-type calcium channel alpha-1B subunit/Amyloid beta A4 precursor protein-binding family A member 1; type: protein assay; remark: listed apart in the source
# SUMO-activating enzyme [3] = biological target: T2, SUMO-activating enzyme (Homo sapiens, UniProt Q9UBT2); assay: blockers of SAE1/SAE2–UBC9 SUMO transfer – biochemical, HTRF, uHTS, primary screen (AID 2006); type: protein-complex assay
# SUMO-activating enzyme [4] = biological target: T2, SUMO-activating enzyme; assay: blockers of UBC9-mediated SUMO conjugation – biochemical, AlphaScreen, SUMOylation inhibitor project, confirmation (AID 2018); type: functional
# Major prion protein = Major prion protein (Homo sapiens, UniProt P04156); type: functional, cell-based
# [5] = biological target: Peroxisome proliferator-activated receptor gamma/Nuclear receptor corepressor 2 (Homo sapiens, UniProt P37231+Q9Y618); assay: Counterscreen for NR2E3 inverse agonists: TR-FRET-based biochemical high throughput dose response assay to identify inverse agonists of the interaction between peroxisome proliferator-activated receptor gamma (PPARg) and nuclear receptor co-repressor 2 (NCOR2).; type: functional
# Beta-galactosidase = Beta-galactosidase (Escherichia coli, UniProt Q8VNN2); assay: Dose response counterscreen for EBI2 assay utilizing the enzyme, b-galactosidase.; type: functional
# [6] = biological target: Photoreceptor-specific nuclear receptor (Homo sapiens, UniProt Q9Y5X4); assay: ligands suppressing NR2E3 nuclear receptor activity – biochemical, TR-FRET, dose response (AID 463256); type: functional
# [7] = growth inhibition of PfATP4-mutant resistant parasites – NITD609-resistant line, SYBR Green, dry powder, dose response (AID 1159571); type: functional, cell-based;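 also: parasites synchronized at ring stage by sorbitol before testing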
# [8] = P. falciparum Dd2 growth inhibitors, dose response, SYBR Green, cherry-picked samples (AID 1159567); type: functional, cell-based
# [9] = Dd2 malaria parasite growth inhibition potency – SYBR Green, dry powder samples, dose response (AID 1159566); type: functional, cell-based;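 also: potency for growth inhibition with lower SYBR green DNA signal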
# [10] = growth inhibition of yeast DHODH-expressing 3D7 parasites – SYBR Green, dry powder samples, dose response (AID 1159570); type: functional, cell-based;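 also: parasite growth measured after 72 hours of compound exposure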
# Large T antigen = Large T antigen (Simian virus 40, UniProt P03070); type: functional, Betapolyomavirus macacae;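 also: Confirmatory-stage PubChem screen for compounds that inhibit SV40 T antigen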
# [11] = biological target: T3, Calpain-2 catalytic subunit (Sus scrofa, UniProt P43367); assay: m-calpain protease blockers, concentration series – biochemical, fluorogenic peptide substrate, dose response (AID 1420); type: functional
# T3 sequence (P43367 whole entry): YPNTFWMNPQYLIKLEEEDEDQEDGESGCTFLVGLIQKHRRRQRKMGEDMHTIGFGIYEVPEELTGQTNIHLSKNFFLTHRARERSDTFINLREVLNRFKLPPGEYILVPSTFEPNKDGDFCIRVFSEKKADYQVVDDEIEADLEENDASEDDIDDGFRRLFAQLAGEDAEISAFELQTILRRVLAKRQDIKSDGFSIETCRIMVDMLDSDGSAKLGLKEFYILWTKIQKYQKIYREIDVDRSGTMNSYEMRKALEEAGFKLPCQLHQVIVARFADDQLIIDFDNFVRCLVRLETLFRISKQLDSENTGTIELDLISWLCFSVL
# [12] = biological target: T4, Polyadenylate-binding protein 1 (Homo sapiens, UniProt P11940); assay: MLLE binding blockers, Cy5 peptide tracer – biochemical, fluorescence polarization, Cy5-PAM2 peptide, secondary, miRNA deadenylation inhibitor project, dose response (AID 602260); type: functional; conditions: read-out: IC50_Mean
# [13] = biological target: T4, Polyadenylate-binding protein 1; assay: MLLE domain peptide-binding blockers, IC50 – biochemical, fluorescence polarization, FITC-PAM2 peptide, dose response (AID 602259); type: functional; conditions: read-out: IC50_Mean
# [14] = biological target: T5, Zinc finger protein mex-5 (Caenorhabditis elegans, UniProt Q9XUB2); assay: potency of MEX-5 RNA-binding blockers – biochemical, C. elegans, fluorescence polarization, dose response (AID 1960)
# T5 sequence (Q9XUB2 whole entry): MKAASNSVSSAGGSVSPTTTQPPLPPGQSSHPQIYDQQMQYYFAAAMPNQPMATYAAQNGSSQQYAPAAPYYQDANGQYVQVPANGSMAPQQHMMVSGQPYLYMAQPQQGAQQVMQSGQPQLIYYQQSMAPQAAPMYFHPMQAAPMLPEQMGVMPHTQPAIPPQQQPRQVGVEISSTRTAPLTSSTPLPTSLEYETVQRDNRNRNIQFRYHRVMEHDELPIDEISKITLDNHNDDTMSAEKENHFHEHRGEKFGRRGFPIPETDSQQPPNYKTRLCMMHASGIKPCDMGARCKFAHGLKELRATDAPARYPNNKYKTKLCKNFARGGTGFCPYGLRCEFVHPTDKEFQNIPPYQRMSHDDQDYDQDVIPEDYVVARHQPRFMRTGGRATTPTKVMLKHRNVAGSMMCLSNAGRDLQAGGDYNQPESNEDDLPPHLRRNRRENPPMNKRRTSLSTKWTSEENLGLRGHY
# [15] = biological target: T6, RNA-binding protein pos-1 (Caenorhabditis elegans, UniProt G5EF15); assay: disruptors of C. elegans POS-1 RNA interaction – biochemical, fluorescence polarization, dose response (AID 1964);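 also: purified POS-1 fused to maltose binding protein made in E. coli; potency of compounds blocking POS-1 binding to fluorescent RNA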
# T6 sequence (G5EF15 whole entry): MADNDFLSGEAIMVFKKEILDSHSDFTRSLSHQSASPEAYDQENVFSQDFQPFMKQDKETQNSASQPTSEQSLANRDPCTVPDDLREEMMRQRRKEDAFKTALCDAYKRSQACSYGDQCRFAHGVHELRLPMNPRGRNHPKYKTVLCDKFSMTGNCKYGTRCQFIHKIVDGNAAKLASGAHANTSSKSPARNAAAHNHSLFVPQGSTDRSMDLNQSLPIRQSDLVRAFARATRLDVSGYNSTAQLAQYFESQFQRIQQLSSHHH
# INS1 = assay: INS-1E survival protection against cytokine death – cell-based, luminescence, retest, dose response (AID 449756); type: functional; conditions: Rattus norvegicus;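 also: cell death triggered by IL-1 beta plus TNF-alpha plus IFN-gamma mixture; protective hits raise ATP signal compared with cytokine alone wells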
# HEK293 = assay: EBV LMP1 TES2 canonical NF-kB signalling blockers – cell-based, HEK293, luciferase, cherry-pick, dose response (AID 588343); type: functional; conditions: Homo sapiens
# [16] = Luminescence Cell-Based Dose Response HTS to Identify Inhibitors of 5'UTR Stem-Loop Driven Prion Protein mRNA Translation in H4 Neuroglioblastoma Cells. [Related pubchem assays: 1827 (Project Summary), 1813 (Primary HTS)]; type: functional
# [17] = blockers of HIV-1 envelope-mediated cell-cell fusion – cherry-pick, dose response (AID 652057); type: functional, cell-based
# [18] = HIV-1 AD8 envelope cell-cell fusion blockers – cherry-pick, dose response (AID 652062); type: functional, cell-based;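 also: luciferase signal from cell-cell fusion driven by HIV-1 clade B AD8 Env; potency is for inhibitors of fusion seen as a drop in luminescence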
# [19] = luciferase reporter signal suppression in cells – H4 neuroglioma cells, luminescence, dose response (AID 1990); type: functional, cell-based
# [20] = tested on: Streptococcus sp. 'group A'; assay: Streptococcus pyogenes SK(-)GAS viability under kanamycin – luminescence, BacTiterGlo, confirmation, counter-screen for streptokinase expression inhibitor project, dose response (AID 1900); type: functional, organism-based
# [21] = blockers of HIV-1 ZM109 envelope-driven cell-cell fusion – HeLa effector, CEM target cells, luciferase, cherry-pick, dose response (AID 652058); type: functional, cell-based;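 also: luciferase signal from HIV-1 Env mediated cell-cell fusion of effector and target cells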
# Streptococcus = assay: GAS UMAA2166 growth inhibition – luminescence, BacTiterGlo, counter-screen for streptokinase expression inhibitor project, dose response (AID 1915); type: functional, organism-based;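 also: potency for reduction of bacterial viability or growth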
# [22] = viability loss in CEM21 cells – cell-based, CellTiter-Glo luminescence, cherry-picked, cytotoxicity control for viral fusion inhibitor project, dose response (AID 652042); type: functional;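 also: potency for signal decrease meaning cytotoxicity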
# [23] = alpha-synuclein stem-loop luciferase translation blockers – H4 neuroglioma cells, luminescence, confirmation (AID 1988); type: functional, cell-based
# Albumin = Albumin (Bos taurus, UniProt P02769); assay: Counterscreen for inhibitors of T-cell receptor (TCR)-CD3 interaction: Fluorescence-based biochemical high throughput dose response assay to identify inhibitors of T-cell receptor (TCR)-CD3 interaction using a TAMRA-labeled BSA probe.; type: functional
# [24] = biological target: DNA dC->dU-editing enzyme APOBEC-3G (Homo sapiens, UniProt Q9HC16); assay: Dose Response confirmation of small molecule APOBEC3G DNA Deaminase Inhibitors via a fluorescence-based single-stranded DNA deaminase assay. [Related pubchem assays (depositor defined):AID493012, AID493028]; type: functional
compound,measurement,setting,value
CC(=O)N1CCN(c2ccc(NCc3ccc(-c4ccc(Br)cc4)o3)cc2)CC1,IC50,Nonstructural protein 1,41.1 µM (active)
O=C(c1ccco1)n1nc(-c2cccnc2)nc1NCc1ccco1,IC50,Prothrombin,0.134 µM (active)
O=C1C(NS(=O)(=O)c2ccccc2)=C(N2CCN(c3ccc(F)cc3)CC2)C(=O)c2ccccc21,IC50,Nonstructural protein 1,18.1 µM (active)
O=C(Nc1ccc2oc(-c3cccc4ccccc34)nc2c1)c1nnc[nH]1,IC50,[1],2.92 µM (active)
same,IC50,[2],> 50 µM (inactive)
same,IC50,SUMO-activating enzyme [3],11.8 µM (active)
same,IC50,SUMO-activating enzyme [4],3.45 µM (active)
Brc1ccc2nc(-c3ccc(CN4CCC5(CC4)CNc4ccccc45)cc3)c(-c3ccccc3)nc2c1,IC50,cells,> 138 µM (inactive)
same,IC50,Major prion protein,7.84 µM (active)
O=C(COc1ccc(Br)cc1)N1CCN(c2ncccn2)CC1,IC50,[5],8.99 µM (active)
same,IC50,Beta-galactosidase,> 80 µM (inactive)
same,IC50,[6],10.1 µM (not active)
C=CCNC(=O)/C(C#N)=C\c1cc(Cl)c(O)c(OCC)c1,IC50,Prothrombin,> 50 µM (not active)
COc1ccc2c3c(n(C)c2c1)[C@@H](CO)N(C(=O)c1ccccc1)CC31CCN(C(=O)c2ccccc2)CC1,AC50,[7],1.55 µM (active)
same,AC50,[8],2.56 µM (active)
same,AC50,[9],1.04 µM (active)
same,AC50,[10],2.28 µM (active)
CCc1nc(SCC(=O)NNC(=O)c2ccc(OC)cc2)c2ccccc2n1,IC50,cells,> 138 µM (inactive)
same,IC50,Major prion protein,1.72 µM (active)
COc1ccc(NC2CCCN(C(=O)c3ccc(OC)cc3OC)C2)cc1 (stereo unspecified),IC50,Large T antigen,82.4 µM (active)
O=C(COC(=O)Cn1cnc2ccccc2c1=O)Nc1cc(Cl)ccc1[N+](=O)[O-],IC50,Prothrombin,3.35 µM (active)
Cc1ccc(Nc2c([N+](=O)[O-])ccc3c2=NC2(CCCCC2)N=3)cc1,IC50,[11],1.58 µM (not active)
same,IC50,[12],> 66 µM (inactive)
same,IC50,Nonstructural protein 1,17.4 µM (active)
same,IC50,[13],> 66 µM (inactive)
c1ccc(-c2csc(NNC3=NCCCCC3)n2)cc1,IC50,Large T antigen,61.1 µM (active)
COCCn1c(SCC(=O)Nc2ccc(C(N)=O)cc2)nc2c3ccccc3nc-2c1O,IC50,[1],6.77 µM (active)
same,IC50,[2],> 50 µM (inactive)
COc1cc(NC(=O)CSc2nc(C3CC3)nc3ccccc23)cc(OC)c1,IC50,[5],5.56 µM (active)
same,IC50,[6],5.35 µM (active)
O=C1C([N+](=O)[O-])=C(O)c2cccc3cccc1c23,IC50,[1],> 56.8 µM (not active)
same,IC50,[2],31.2 µM (active)
same,EC50,[14],9.23 µM (active)
same,EC50,[15],12.6 µM (active)
CN1C(=O)C(C)(C)c2cc(S(=O)(=O)N3CCCC(C(=O)Nc4ccc(Cl)cc4)C3)ccc21 (stereo unspecified),IC50,cells,> 138 µM (inactive)
same,IC50,Major prion protein,5.86 µM (active)
Cc1c(Br)ccc(NC(=O)Cn2nc(-c3cccs3)ccc2=O)c1C,IC50,[5],7.73 µM (active)
same,IC50,[6],7.42 µM (active)
COc1ccc(Cc2nnc(N/N=C/c3ccc(O)cc3)nc2O)cc1OC,AC50,INS1,0.946 µM (active)
same,IC50,Nonstructural protein 1,1.19 µM (active)
same,AC50,HEK293,4.42 µM (active)
COc1ccc(N2CCN(C(=O)c3cc(=O)c4cc(C)ccc4o3)CC2)cc1,IC50,Beta-galactosidase,> 80 µM (inactive)
CCCc1cc(=O)n2ncc(-c3ccc(Cl)cc3)c2[nH]1,EC50,[16],12.3 µM (active)
same,AC50,[17],2.65 µM (active)
same,AC50,[18],11.2 µM (active)
same,EC50,[19],11.6 µM (active)
same,EC50,[20],1.71 µM (active)
same,AC50,[21],7.51 µM (active)
same,AC50,INS1,5.79 µM (active)
same,EC50,Streptococcus,5.62 µM (active)
same,AC50,[22],4.59 µM (active)
same,EC50,[23],10.9 µM (active)
same,AC50,HEK293,4.07 µM (active)
CC(=O)c1ccc(NC(=O)CN2C(=O)/C(=C/C(C)=C/c3ccccc3)SC2=S)cc1,IC50,Albumin,> 94.1 µM (inactive)
CCOC(=O)c1sc(N/N=C/c2ccccc2)nc1C,IC50,[24],40.4 µM (active)
COc1ccc(-n2nc3c(N4CCC(C(=O)NCc5ccccc5C)CC4)nnc(C)c3c2C)cc1,IC50,[5],1.44 µM (active)
same,IC50,[6],2.01 µM (active)
CC(=O)N(c1ccc2oc(=O)sc2c1)S(=O)(=O)c1cccs1,IC50,Large T antigen,40.1 µM (active)
COc1ccccc1C(=O)NNC(=O)c1ccc2ccccc2c1O,IC50,Albumin,> 94.2 µM (inactive)
COc1cc(/C=N/NC(=O)c2ccc3c(c2)OCCO3)cc(Cl)c1O,IC50,Large T antigen,22.7 µM (active)
Cc1ccc(C)c(SCC(=O)OCC(=O)Nc2ccc(S(=O)(=O)N3CCOCC3)cc2)c1,IC50,Prothrombin,5.72 µM (active)
